These results are taken from ChEMBL document CHEMBL5346878, “SAR study of piperidine derivatives as inhibitors of 1,4-dihydroxy-2-naphthoate isoprenyltransferase (MenA) from Mycobacterium tuberculosis” (Eur J Med Chem, 2023).

In test [1] the test system is Mycobacterium tuberculosis. Nature of the test: Antibacterial activity against Mycobacterium tuberculosis mc2 6230 assessed as bacterial growth inhibition incubated for 5 days by absorbance based assay. It is filed as functional, organism-based. Particulars: mc2 6230, 120 h; for GI50: time 5 day.
Test [2] concerns the target T1, 1,4-dihydroxy-2-naphthoate octaprenyltransferase (Mycobacterium tuberculosis, UniProt P9WIP3).
T1 sequence (P9WIP3 whole entry): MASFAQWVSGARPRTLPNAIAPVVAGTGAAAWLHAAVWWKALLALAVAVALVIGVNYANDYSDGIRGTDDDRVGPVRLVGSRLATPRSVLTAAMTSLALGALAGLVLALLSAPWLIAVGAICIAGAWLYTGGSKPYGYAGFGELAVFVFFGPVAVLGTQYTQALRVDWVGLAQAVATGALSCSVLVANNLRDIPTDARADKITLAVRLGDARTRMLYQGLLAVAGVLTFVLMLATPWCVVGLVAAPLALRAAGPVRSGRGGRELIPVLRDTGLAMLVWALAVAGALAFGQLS
Nature of the test: Displacement of [3H]FPP from Mycobacterium tuberculosis mc2 6230 membrane protein MenA incubated for 30 mins by liquid scintillation spectrometry. It is filed as cell membranes.

In test [3] the test system is Mycobacterium tuberculosis. Nature of the test: Displacement of 14C-SAM from Mycobacterium tuberculosis membrane MenG assessed as reduction in MK8 synthesis at 12.5 uM incubated for 1 hr by liquid scintillation counting method. In kind it is cell membranes.
The test system of test [4] is Mycobacterium tuberculosis. Put plainly: Antibacterial activity against Mycobacterium tuberculosis assessed as bacterial growth inhibition. In kind it is functional.
The subject of test [5] is Mycobacterium tuberculosis. Nature of the test: Antibacterial activity against Mycobacterium tuberculosis H37Rv (ATCC 27294) assessed as bacterial growth inhibition incubated for 7 days by microdilution alamarBlue assay. Particulars: 168 h, time 7 day. In kind it is functional.
In test [6] the test system is Mycobacterium tuberculosis. Nature of the test: Synergistic bactericidal activity against Mycobacterium tuberculosis H37RvLP (ATCC 25618) incubated for 14 days in presence of CPZ relative to control. In kind it is functional. As to conditions: time 14 day.
In test [7] the test system is Mycobacterium tuberculosis. Put plainly: Synergistic bactericidal activity against Mycobacterium tuberculosis H37RvLP (ATCC 25618) at 25 uM in presence of Q203. It is filed as functional, organism-based.
For test [8], the system named is Mycobacterium tuberculosis. Nature of the test: Bactericidal activity against Mycobacterium tuberculosis H37RvLP (ATCC 25618) at 50 to 100 uM. It is filed as functional, organism-based. Particulars: dose 50-100 µM.
The test system of test [9] is Mycobacterium tuberculosis. Nature of the test: Synergistic bactericidal activity against Mycobacterium tuberculosis H37RvLP (ATCC 25618) assessed as fold increase in activity upto 100 uM in presence of CPZ. It is filed as functional.
The test system of test [10] is Mycobacterium tuberculosis. Put plainly: Synergistic bactericidal activity against Mycobacterium tuberculosis H37RvLP (ATCC 25618) at 25 uM in presence of IMP. It is filed as functional, organism-based.
In test [11] the test system is Mycobacterium tuberculosis. Put plainly: Synergistic bactericidal activity against Mycobacterium tuberculosis H37RvLP (ATCC 25618) assessed as fold increase in activity at <12.5 uM in presence of IMP. It is filed as functional.

SMILES strings stand for the structures. In brackets after ≈: the same amount, converted by molar mass. Activity calls are given as the source filed them. The rule behind the calls is not given here.

With `CCCN(C)c1ccc(CN2CCC3(CC2)CC(Oc2cccc(Oc4ccccc4)c2)CO3)cc1` (stereo unspecified), the GI50 in test [1] was found to be 9 µM.
Take `CCCN(C)c1ccc(CN2CCC(COc3ccccc3Cl)CC2)cc1`: the GI50 in [1] was found to be 39 µM. Further, the IC50 in test [2] (read-out: IC50) was determined as 31 µM.
Turning to `CCCN(C)c1ccc(CN2CCC(CSc3ccccc3C(=O)OC)CC2)cc1`, in [3], the inhibition entry was “inactive”.
Turning to `COc1ccc2ccc(OCCCCCCCCN3CCCCC3)cc2c1`, the MIC in [4] is 8.1 µM (≈ 2.99 µg/mL).
With `CCCN(C)c1ccc(CN2CCC(COc3ccc(C)cn3)CC2)cc1`, the GI50 in test [1] is 31 µM. Besides, in test [2] (read-out: IC50), the IC50 is over 50 µM.
For `CCCN(C)c1ccc(CN2CCC(COc3cc(=O)n(C)c4ccccc34)CC2)cc1` the same measures were 11 µM and 102 µM.
With `CCCN(C)c1ccc(CN2CCC(COc3cccc(Cc4ccc(Cl)cc4)c3)CC2)cc1`, the GI50 in test [1] was over 226 µM. Moreover, the IC50 in [2] (read-out: IC50) came to 55 µM.
With `CCCN(C)c1ccc(CN2CCC(COC3[C@H]4C[C@@H]5C[C@@H](C[C@H]3C5)C4)CC2)cc1` (stereo partly specified), in test [1], the GI50 was found to be 6 µM. Also, the IC50 in [2] (read-out: IC50) amounted to 23 µM.
For `CCCN(C)c1ccc(CN2CCC(COc3cccc(C(=O)c4ccc(Cl)cc4)c3)CC2)cc1` the same measures were 8 µM and 14 µM.
On to `C=CCN(C)CCCCCCCCOc1ccc2ccc(OC)cc2c1`, for which the MIC in [4] came out at 8.4 µM (≈ 2.99 µg/mL).
On to `CCCN(C)c1ccc(CN2CCC(COc3noc4ccccc34)CC2)cc1`, for which, in test [3], the inhibition entry was “inactive”.
Turning to `CCCN(C)c1ccc(CN2CCC3(CC2)CC(Oc2ccc(Cl)cc2)CO3)cc1` (stereo unspecified), in test [1], the GI50 was 25 µM. For the same molecule, in [2] (read-out: IC50), the IC50 is over 50 µM.
As to `CCCN(C)c1ccc(CN2CCCC(Oc3cccc(Oc4ccccc4)c3)C2)cc1` (stereo unspecified), the GI50 in test [1] turned out to be 37 µM. Moreover, the IC50 in [2] (read-out: IC50) turned out to be 24 µM.
Turning to `CCCN(C)c1ccc(CN2CCC(COc3ccc4ccccc4c3)CC2)cc1`, the GI50 in test [1] is 7 µM. In addition, the IC50 in test [2] (read-out: IC50) was 21 µM.
Turning to `COc1ccc(-c2cc(NC(=O)c3ccc(Cl)cc3F)ccc2OC)cc1`, in test [5], the MIC90 came out at 4.8 µg/mL (≈ 12.4 µM). Besides, in test [3], the inhibition entry is “Active”.
For `CCCN(C)c1ccc(CN2CCC(COc3ccc(Br)cc3)CC2)cc1`, the GI50 in test [1] turned out to be 11 µM. In addition, the IC50 in test [2] (read-out: IC50) came out at 12 µM.
For `CCCN(C)c1ccc(CN2CCC(COc3ccccc3F)CC2)cc1` the same measures were 35 µM and 18 µM.
As to `CCCN(C)c1ccc(CN2CCC(COc3ccc(Cl)cc3)CC2)cc1`, the GI50 in [1] was 10 µM. Moreover, the “inhibition (INH)” value in test [6] is listed as 100%. The outcome in [7], in test [8] and in test [10] was Active. The IC50 in test [2] (read-out: IC50) was found to be 22 µM. Besides, in test [9], the “fold change (FC)” value is listed as 1. Moreover, in [3], the inhibition result was “inactive”.
In the case of `CCCN(C)c1ccc(CN2CCC(COc3c(F)cccc3F)CC2)cc1`, the GI50 in [1] was 28 µM. For the same molecule, the IC50 in [2] (read-out: IC50) was determined as 25 µM.
On to `CCCN(C)c1ccc(CN2CCC(COc3ccccc3)CC2)cc1`, for which the GI50 in test [1] came out at 27 µM. Moreover, in test [2] (read-out: IC50), the IC50 amounted to 64 µM.
On to `CCCN(C)c1ccc(CN2CCC(COc3ccc(OC)cc3)CC2)cc1`, for which the GI50 in test [1] is 18 µM. Further, the inhibition entry in test [3] is “inactive”.
In the case of `CCCN(C)c1ccc(CN2CCC(COc3ccc(Cl)cc3Cl)CC2)cc1`, the GI50 in [1] was 13 µM.
`CCCN(C)c1ccc(CN2CCC(COc3ccc(F)cc3)CC2)cc1`: the GI50 in [1] was 14 µM. Also, the IC50 in [2] (read-out: IC50) was 33 µM.
In the case of `CCCN(C)c1ccc(CN2CCC(COc3cccc(C(=O)N4CCOCC4)c3)CC2)cc1`, the GI50 in test [1] is over 215 µM. Further, the IC50 entry in [2] is recorded as “Not Active”.
`CCCN(C)c1ccc(CN2CCC(COc3nc4ccc(F)cc4s3)CC2)cc1`: the figures for the IC50 in [1] and in test [2] (read-out: IC50) were 11 µM and 31 µM, respectively.
Turning to `CCCN(C)c1ccc(CN2C[C@@H]3C[C@H]2CN3Cc2ccc(N3CCOCC3)cc2)cc1`, in [1], the GI50 was 149 µM. In addition, in test [2] (read-out: IC50), the IC50 was over 50 µM.
For `COc1ccc2ccc(OCCCCCCCCNCCc3ccc(F)cc3)cc2c1`, the MIC in test [4] was under 14.2 µM.
For the molecule `CCCN(C)c1ccc(CN2CCC(COc3cccc(Oc4ccccc4)c3)CC2)cc1`, the GI50 in test [1] came to 8 µM. In [6], the “inhibition (INH)” value came to 100%. Also, the outcome in [8] was Active. Besides, the IC50 in test [2] (read-out: IC50) was 13 µM. The “fold change (FC)” value is given as 1 in test [9] and over 3 in test [11]. Moreover, the inhibition result in test [3] was “inactive”.
Consider `CCCN(C)c1ccc(CN2[C@@H]3CC[C@H]2CC(Oc2cccc(Oc4ccccc4)c2)C3)cc1` (stereo partly specified), for which the GI50 in [1] came to 17 µM. Besides, in test [2] (read-out: IC50), the IC50 was determined as 27 µM.
For `CCCN(C)c1ccc(CN2CCC(CSc3ccccc3)CC2)cc1`, in test [2] (read-out: IC50), the IC50 came to 18 µM.
Take `CCCN(C)c1ccc(CN2CCC(COc3cccc(Br)c3)CC2)cc1`: in [1], the GI50 was found to be 14 µM. Further, the IC50 in [2] (read-out: IC50) amounted to 12 µM. Also, the inhibition result in test [3] was “inactive”.
For `c1ccc(Oc2cccc(OCC3CCN(Cc4ccc(N5CCOCC5)cc4)CC3)c2)cc1`, in [1], the GI50 stood at 21 µM. Besides, in [3], the inhibition result was “inactive”.
For the molecule `CCCN(C)c1ccc(CN2CCC(COc3cccc(Nc4ccccc4C)c3)CC2)cc1`, in [1], the GI50 amounted to 16 µM. For the same molecule, the IC50 in test [2] (read-out: IC50) was 22 µM. Further, the inhibition result in test [3] was “inactive”.
